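Where inhibition never reached the appropriate level, the endpoint shown equals the highest concentration tested. Otherwise, values were interpolated linearly from a five-concentration, 48-hour dose response in 96-well plates. GI50 = concentration required for 50% inhibition of growth. TGI is the concentration that stops growth completely.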
Legend:
Test in all cases: NCI anticancer screen, dose series, 48 h
EKVX NSCLC = system: EKVX NSCLC
HCT-116 colon = system: HCT-116 colon
HOP-92 NSCLC = system: HOP-92 NSCLC
RPMI-8226 leukemia = system: RPMI-8226 leukemia
SR leukemia = system: SR leukemia
NCI-H23 lung = system: NCI-H23 lung
SN12C renal = system: SN12C renal
SF-295 CNS = system: SF-295 CNS
OVCAR-8 ovarian = system: OVCAR-8 ovarian
HCT-15 colon = system: HCT-15 colon

CC1C[C@H](C)CC(C(O)CC2CC(=O)N(Cc3ccccc3)C(=O)C2)C1O (some centres undefined)
TGI (EKVX NSCLC): > 100 µM
TGI (HCT-116 colon): > 100 µM
TGI (HOP-92 NSCLC): > 100 µM
TGI (RPMI-8226 leukemia): > 100 µM
TGI (SR leukemia): > 100 µM
TGI (NCI-H23 lung): > 100 µM
TGI (SN12C renal): > 100 µM
TGI (SF-295 CNS): > 100 µM
TGI (OVCAR-8 ovarian): > 100 µM

NS(=O)(=O)c1ccc(NC2=CC(=O)C(=O)c3ccccc32)cc1
TGI (EKVX NSCLC): > 100 µM
TGI (HCT-15 colon): > 100 µM
TGI (HCT-116 colon): > 100 µM
TGI (HOP-92 NSCLC): > 100 µM
TGI (RPMI-8226 leukemia): > 100 µM
TGI (SR leukemia): > 100 µM
TGI (NCI-H23 lung): > 100 µM
TGI (SN12C renal): > 100 µM
TGI (SF-295 CNS): > 100 µM
TGI (OVCAR-8 ovarian): > 100 µM

COc1ccc2c(c1)[n+](=O)c(C(=O)c1ccco1)c(C(F)(F)F)n2[O-]
GI50 (EKVX NSCLC): 3.47 µM
TGI (EKVX NSCLC): 9.81 µM
GI50 (HCT-15 colon): 1.16 µM
TGI (HCT-15 colon): 4.6 µM
GI50 (HCT-116 colon): 0.851 µM
TGI (HCT-116 colon): 15.1 µM
GI50 (HOP-92 NSCLC): 1.83 µM
TGI (HOP-92 NSCLC): 19.5 µM
GI50 (RPMI-8226 leukemia): 1.62 µM
TGI (RPMI-8226 leukemia): 22.1 µM
GI50 (SR leukemia): 0.346 µM
TGI (SR leukemia): > 100 µM
GI50 (NCI-H23 lung): 2.02 µM
TGI (NCI-H23 lung): 5.05 µM
GI50 (SN12C renal): 3.01 µM
TGI (SN12C renal): 11.8 µM
GI50 (SF-295 CNS): 2.79 µM
TGI (SF-295 CNS): 14.7 µM
GI50 (OVCAR-8 ovarian): 2.23 µM
TGI (OVCAR-8 ovarian): 9.41 µM

CN(Cc1cc(Br)cc(Br)c1O)Cc1cc(Br)cc(Br)c1O
GI50 (EKVX NSCLC): 3.03 µM
TGI (EKVX NSCLC): 20.2 µM
GI50 (HCT-15 colon): 0.558 µM
TGI (HCT-15 colon): 16.9 µM
GI50 (HCT-116 colon): 0.812 µM
TGI (HCT-116 colon): 12.3 µM
GI50 (HOP-92 NSCLC): 1.42 µM
TGI (HOP-92 NSCLC): 8.87 µM
GI50 (RPMI-8226 leukemia): 2.77 µM
TGI (RPMI-8226 leukemia): 47.9 µM
GI50 (SR leukemia): 0.675 µM
TGI (SR leukemia): 28.3 µM
GI50 (NCI-H23 lung): 3.28 µM
TGI (NCI-H23 lung): 22.3 µM
GI50 (SN12C renal): 2.5 µM
TGI (SN12C renal): 16.7 µM
GI50 (SF-295 CNS): 0.847 µM
TGI (SF-295 CNS): 11.9 µM
GI50 (OVCAR-8 ovarian): 1.94 µM
TGI (OVCAR-8 ovarian): 16.1 µM

COc1ccc(C2CC(c3cc(C)ccc3O)=NC(N)=N2)cc1 (centres undefined)
TGI (EKVX NSCLC): > 100 µM
TGI (HCT-15 colon): > 100 µM
TGI (HCT-116 colon): > 100 µM
TGI (HOP-92 NSCLC): > 100 µM
TGI (RPMI-8226 leukemia): > 100 µM
TGI (SR leukemia): > 100 µM
TGI (NCI-H23 lung): > 100 µM
TGI (SN12C renal): > 100 µM
TGI (SF-295 CNS): > 100 µM
TGI (OVCAR-8 ovarian): > 100 µM

C[C@H](Nc1ncnc2nc[nH]c12)c1cc2ccc(F)cc2nc1-c1ccccn1
GI50 (EKVX NSCLC): > 70.7 µM
TGI (EKVX NSCLC): > 100 µM
GI50 (HCT-15 colon): > 100 µM
TGI (HCT-15 colon): > 100 µM
GI50 (HCT-116 colon): > 100 µM
TGI (HCT-116 colon): > 100 µM
GI50 (HOP-92 NSCLC): 3.43 µM
TGI (HOP-92 NSCLC): > 100 µM
GI50 (RPMI-8226 leukemia): > 100 µM
TGI (RPMI-8226 leukemia): > 100 µM
GI50 (SR leukemia): 33.4 µM
TGI (SR leukemia): > 100 µM
GI50 (NCI-H23 lung): > 100 µM
TGI (NCI-H23 lung): > 100 µM
GI50 (SN12C renal): 57.8 µM
TGI (SN12C renal): > 100 µM
GI50 (SF-295 CNS): 18.8 µM
TGI (SF-295 CNS): > 100 µM
GI50 (OVCAR-8 ovarian): > 100 µM
TGI (OVCAR-8 ovarian): > 100 µM

CC(=O)c1cc(C(=O)c2ccc3c(c2)Sc2ccccc2N3)c2c(C)cc(C)cn12
GI50 (EKVX NSCLC): 0.636 µM
TGI (EKVX NSCLC): > 100 µM
GI50 (HCT-15 colon): 0.344 µM
TGI (HCT-15 colon): > 100 µM
GI50 (HCT-116 colon): 0.263 µM
TGI (HCT-116 colon): > 100 µM
GI50 (HOP-92 NSCLC): 1.24 µM
TGI (HOP-92 NSCLC): > 31 µM
GI50 (RPMI-8226 leukemia): 0.361 µM
TGI (RPMI-8226 leukemia): > 27.9 µM
GI50 (SR leukemia): 0.302 µM
TGI (SR leukemia): > 100 µM
GI50 (NCI-H23 lung): 0.482 µM
TGI (NCI-H23 lung): > 100 µM
GI50 (SN12C renal): 0.724 µM
TGI (SN12C renal): > 100 µM
GI50 (SF-295 CNS): 0.187 µM
TGI (SF-295 CNS): 0.94 µM
GI50 (OVCAR-8 ovarian): 0.405 µM
TGI (OVCAR-8 ovarian): > 100 µM

O=[N+]([O-])c1ccccc1N/N=C\c1c[nH]c2ccccc12
GI50 (EKVX NSCLC): 2.49 µM
TGI (EKVX NSCLC): > 100 µM
GI50 (HCT-15 colon): 5.68 µM
TGI (HCT-15 colon): > 100 µM
GI50 (HCT-116 colon): 13.7 µM
TGI (HCT-116 colon): > 100 µM
GI50 (HOP-92 NSCLC): 4.45 µM
TGI (HOP-92 NSCLC): 49.2 µM
GI50 (RPMI-8226 leukemia): 47.4 µM
TGI (RPMI-8226 leukemia): > 100 µM
GI50 (SR leukemia): 3.4 µM
TGI (SR leukemia): > 100 µM
GI50 (NCI-H23 lung): 16.8 µM
TGI (NCI-H23 lung): > 100 µM
GI50 (SN12C renal): 10.2 µM
TGI (SN12C renal): > 100 µM
GI50 (SF-295 CNS): 9.5 µM
TGI (SF-295 CNS): 33 µM
GI50 (OVCAR-8 ovarian): 12 µM
TGI (OVCAR-8 ovarian): 29.4 µM

CC(C)(C)C(=O)OCOP(=O)(OCOC(=O)C(C)(C)C)C1CC(O)N(O)C1=O (centres undefined)
GI50 (EKVX NSCLC): 10.8 µM
TGI (EKVX NSCLC): > 100 µM
GI50 (HCT-15 colon): 4.28 µM
TGI (HCT-15 colon): > 100 µM
GI50 (HCT-116 colon): 3.72 µM
TGI (HCT-116 colon): > 100 µM
GI50 (HOP-92 NSCLC): 1.84 µM
TGI (HOP-92 NSCLC): 8.99 µM
GI50 (RPMI-8226 leukemia): 2.88 µM
TGI (RPMI-8226 leukemia): 14.6 µM
GI50 (SR leukemia): 4.2 µM
TGI (SR leukemia): 75.2 µM
GI50 (NCI-H23 lung): 3.67 µM
TGI (NCI-H23 lung): 25.3 µM
GI50 (SN12C renal): 2.87 µM
TGI (SN12C renal): 9.56 µM
GI50 (SF-295 CNS): 15.7 µM
TGI (SF-295 CNS): > 100 µM
GI50 (OVCAR-8 ovarian): 4.73 µM
TGI (OVCAR-8 ovarian): > 100 µM

Cc1ccc(C(SCC(N)C(=O)O)(c2ccc(C)cc2)c2ccc(C)cc2)cc1 (centres undefined)
GI50 (EKVX NSCLC): 4.32 µM
TGI (EKVX NSCLC): 39.4 µM
GI50 (HCT-15 colon): 4.54 µM
TGI (HCT-15 colon): 27.9 µM
GI50 (HCT-116 colon): 0.829 µM
TGI (HCT-116 colon): 13 µM
GI50 (HOP-92 NSCLC): 2.87 µM
TGI (HOP-92 NSCLC): 17.5 µM
GI50 (RPMI-8226 leukemia): 2.27 µM
TGI (RPMI-8226 leukemia): 12.5 µM
GI50 (SR leukemia): 1.92 µM
TGI (SR leukemia): 6.91 µM
GI50 (NCI-H23 lung): 4.87 µM
TGI (NCI-H23 lung): > 43.2 µM
GI50 (SN12C renal): 2.74 µM
TGI (SN12C renal): 18.4 µM
GI50 (SF-295 CNS): 1.29 µM
TGI (SF-295 CNS): 10.3 µM
GI50 (OVCAR-8 ovarian): 2.36 µM
TGI (OVCAR-8 ovarian): 17.4 µM

Nc1nc(OCc2cc(Br)cs2)c2[nH]cnc2n1
GI50 (EKVX NSCLC): 24.7 µM
TGI (EKVX NSCLC): > 100 µM
GI50 (HCT-15 colon): 18.4 µM
TGI (HCT-15 colon): > 100 µM
GI50 (HCT-116 colon): 19.9 µM
TGI (HCT-116 colon): > 100 µM
GI50 (HOP-92 NSCLC): 3.11 µM
TGI (HOP-92 NSCLC): 37 µM
GI50 (RPMI-8226 leukemia): 19.1 µM
TGI (RPMI-8226 leukemia): > 100 µM
GI50 (SR leukemia): 29.5 µM
TGI (SR leukemia): > 100 µM
GI50 (NCI-H23 lung): 21.8 µM
TGI (NCI-H23 lung): > 100 µM
GI50 (SN12C renal): 29.6 µM
TGI (SN12C renal): > 100 µM
GI50 (SF-295 CNS): 25.9 µM
TGI (SF-295 CNS): > 100 µM
GI50 (OVCAR-8 ovarian): 33.3 µM
TGI (OVCAR-8 ovarian): > 100 µM

CS(=O)(=O)Nc1ccc(-c2cc(-c3ccccc3)cc(C(N)=O)c2N)cc1
GI50 (EKVX NSCLC): > 25 µM
TGI (EKVX NSCLC): > 25 µM
GI50 (HCT-15 colon): > 22.2 µM
TGI (HCT-15 colon): > 25 µM
GI50 (HCT-116 colon): > 25 µM
TGI (HCT-116 colon): > 25 µM
GI50 (HOP-92 NSCLC): 8.9 µM
TGI (HOP-92 NSCLC): > 25 µM
GI50 (RPMI-8226 leukemia): 18.4 µM
TGI (RPMI-8226 leukemia): > 25 µM
GI50 (SR leukemia): 16.5 µM
TGI (SR leukemia): > 25 µM
GI50 (NCI-H23 lung): > 25 µM
TGI (NCI-H23 lung): > 25 µM
GI50 (SN12C renal): > 25 µM
TGI (SN12C renal): > 25 µM
GI50 (SF-295 CNS): 24.6 µM
TGI (SF-295 CNS): > 25 µM
GI50 (OVCAR-8 ovarian): > 22.6 µM
TGI (OVCAR-8 ovarian): > 25 µM

CCCCCCCCCCCCCC1=NCCN1CCO
GI50 (EKVX NSCLC): 8.35 µM
TGI (EKVX NSCLC): 28.4 µM
GI50 (HCT-15 colon): 1.92 µM
TGI (HCT-15 colon): 4.77 µM
GI50 (HCT-116 colon): 2.3 µM
TGI (HCT-116 colon): 5.27 µM
GI50 (HOP-92 NSCLC): 3.65 µM
TGI (HOP-92 NSCLC): 23.6 µM
GI50 (RPMI-8226 leukemia): 6.5 µM
TGI (RPMI-8226 leukemia): > 81.5 µM
GI50 (SR leukemia): 3.75 µM
TGI (SR leukemia): > 100 µM
GI50 (NCI-H23 lung): 8.61 µM
TGI (NCI-H23 lung): 31.7 µM
GI50 (SN12C renal): 2.57 µM
TGI (SN12C renal): 6.47 µM
GI50 (SF-295 CNS): 2.19 µM
TGI (SF-295 CNS): 6.18 µM
GI50 (OVCAR-8 ovarian): 3.4 µM
TGI (OVCAR-8 ovarian): > 28.1 µM

— PubChem BioAssay (NCI)
